Source: ChEMBL document CHEMBL1201862, “PubChem BioAssay data set” (2004)
Activity calls are given as the source filed them.

Columns and labels:
[1] = biological target: Photoreceptor-specific nuclear receptor (Homo sapiens, UniProt Q9Y5X4); assay type: functional;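 note: potency for compounds that break the NR2E3 corepressor complex and count as activators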
[2] = biological target: Peroxisome proliferator-activated receptor gamma/Nuclear receptor corepressor 2 (Homo sapiens, UniProt P37231+Q9Y618); assay type: functional
[3] = biological target: T1, Delta-type opioid receptor (Homo sapiens, UniProt P41143); experiment: HTS Image-Based Screen for Antagonists of the DOR Receptor. [Related pubchem assays (depositor defined):AID1777, AID1785, AID1786, AID2133]; assay type: functional
Mu-type opioid receptor = Mu-type opioid receptor (Homo sapiens, UniProt P35372); experiment: HTS Image-Based Screen for Agonists of the MOR Receptor. [Related pubchem assays (depositor defined):AID1777, AID1785, AID1786, AID2133]; assay type: functional;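 note: imaging of beta-arrestin GFP recruitment into spots after receptor activation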
[4] = biological target: T1, Delta-type opioid receptor; experiment: HTS Image-Based Screen for Agonists of the DOR Receptor. [Related pubchem assays (depositor defined):AID1777, AID1786, AID2133]; assay type: functional
[5] = biological target: T2, Kappa-type opioid receptor (Homo sapiens, UniProt P41145); assay type: functional
Beta-galactosidase = Beta-galactosidase (Escherichia coli, UniProt Q8VNN2); assay type: functional
[6] = biological target: T2, Kappa-type opioid receptor; assay type: functional; remark: listed apart in the source
[7] = biological target: Glyceraldehyde-3-phosphate dehydrogenase (Homo sapiens, UniProt P04406)
Bcl-2-like protein 10 = biological target: T3, Bcl-2-like protein 10 (Homo sapiens, UniProt Q9HD36); experiment: displacers of TR3 peptide from Bcl-B, primary screen, selectivity assay for Bfl-1 inhibitor project, biochemical, fluorescence polarization, FITC-TR3 peptide (AID 748);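 note: fluorescence polarization from a fluorescein-labelled TR3 peptide binding purified Bcl-B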
T3 sequence (Q9HD36 whole entry): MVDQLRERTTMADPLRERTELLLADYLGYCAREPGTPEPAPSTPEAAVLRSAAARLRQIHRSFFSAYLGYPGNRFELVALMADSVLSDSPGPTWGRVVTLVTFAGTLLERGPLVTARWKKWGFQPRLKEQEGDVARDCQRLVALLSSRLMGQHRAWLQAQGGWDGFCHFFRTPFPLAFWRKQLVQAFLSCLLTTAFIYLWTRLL

[8] = biological target: Sphingosine 1-phosphate receptor 2 (Homo sapiens, UniProt O95136); experiment: Dose Response Cell Based Assay for Antagonists of the S1P2 Receptor. [Related pubchem assays: 856, 736 ]; assay type: functional
[9] = tested on: Streptococcus sp. 'group A'; experiment: growth inhibition of control SK(-) GAS strain, dose response, counter-screen for streptokinase expression inhibitor project, luminescence, kanamycin, BacTiterGlo, confirmation (AID 1900); assay type: functional, organism-based
[10] = biological target: Serine/threonine-protein phosphatase PP1-alpha catalytic subunit (Homo sapiens, UniProt P62136); experiment: PP1 phosphatase inhibitors, dose response, biochemical, fluorescence (AID 2403);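 note: phosphatase turnover of OMFP into fluorescent 3-O-methylfluorescein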
[11] = inhibitors of intracellular T. cruzi replication, confirmation, NIH3T3 host cells, beta-gal luminescence (AID 2044); assay type: functional, cell-based;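 note: intracellular parasites grown in NIH/3T3 mouse fibroblasts as host cells; luminescent beta-galactosidase reporter signal from transgenic T. cruzi replicating inside host cells; inhibitors lower the luminescence signal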
[12] = biological target: Serine/threonine-protein phosphatase (Homo sapiens, UniProt Q9BPW0); experiment: Counterscreen for inhibitors of PP1: fluorescence-based biochemical high throughput dose response assay to identify inhibitors of Protein Phosphatase 5 (PP5). [Related pubchem assays: 2034 (Summary (PP5 inhibitors)), 1987 (PP5 inhibitors in singlate), 2235 (PP1 inhibitors in singlate)]
[13] = cytotoxicity toward NIH3T3 fibroblasts, dose response, counter-screen, cell-based, ATP luminescence, mouse fibroblasts (AID 2010); assay type: functional;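 note: cells exposed to compound for about 90 hours before reading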
Streptococcus = experiment: Group A Streptococcus viability loss, dose response, counter-screen for streptokinase expression inhibitor project, luminescence, BacTiterGlo (AID 1915); assay type: functional, organism-based;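 note: potency for reduction of bacterial viability or growth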
Vero = experiment: cells; assay type: functional; conditions: Chlorocebus sabaeus
[14] = Shn3 3'UTR reporter inhibitors, dose response, cell-based, Clone20 osteoblasts, firefly luciferase, cherry-picked (AID 624132); assay type: functional;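 note: firefly luciferase luminescence from reporter carrying the Shn3 3'UTR in osteoblasts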
[15] = HepG2 cell cytotoxicity, dose response, cytotoxicity control for Shn3 inhibitor project, CellTiter-Glo, cherry-picked (AID 624134); assay type: functional, cell-based
[16] = control 3'UTR Renilla luciferase suppression, dose response, counter-screen for Shn3 inhibitor project, cell-based, Clone20-Shn3RL, cherry-picked (AID 624133); assay type: functional
[17] = inhibitors of HIV Env-driven cell fusion, dose response, cherry-pick (AID 652057); assay type: functional, cell-based
Galanin receptor type 3 = biological target: T4, Galanin receptor type 3 (Homo sapiens, UniProt O60755); experiment: Fluorescence-based cell-based primary high throughput dose response assay to identify antagonists of the Galanin Receptor 3 (GalR3).; assay type: functional
T4 sequence (O60755 whole entry): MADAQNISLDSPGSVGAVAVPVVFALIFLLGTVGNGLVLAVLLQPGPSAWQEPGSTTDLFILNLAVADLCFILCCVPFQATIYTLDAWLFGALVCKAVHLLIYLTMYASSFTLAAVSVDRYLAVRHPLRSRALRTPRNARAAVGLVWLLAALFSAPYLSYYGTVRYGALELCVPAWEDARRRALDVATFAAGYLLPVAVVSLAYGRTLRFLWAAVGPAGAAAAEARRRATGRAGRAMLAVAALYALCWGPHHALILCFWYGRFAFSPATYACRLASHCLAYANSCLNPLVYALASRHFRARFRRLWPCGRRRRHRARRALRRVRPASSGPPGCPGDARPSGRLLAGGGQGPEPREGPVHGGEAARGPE

cells = assay type: functional, cell-based; conditions: HEK-CNG
[18] = CEM21 lymphoblast cell cytotoxicity, dose response, cytotoxicity control for viral fusion inhibitor project, CellTiter-Glo luminescence, cherry-picked (AID 652042); assay type: functional, cell-based;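 note: potency for signal decrease meaning cytotoxicity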
[19] = ZM109 Env clade C HIV-1 fusion inhibitors, dose response, HeLa effector, CEM target cells, luciferase, cherry-pick (AID 652058); assay type: functional, cell-based
[20] = off-target signal loss in HeLa-CEM21 co-culture – HeLa F-luc CTL cells, cherry-picked, counter-screen for HIV-1 Env fusion inhibitor project, dose response (AID 652040); assay type: functional, cell-based;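 note: potency for signal decrease marking cytotoxic or nonspecific inhibition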
[21] = inhibitors of clade B AD8 Env fusion, dose response, cell-based, cherry-pick (AID 652062); assay type: functional;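 note: luciferase signal from cell-cell fusion driven by HIV-1 clade B AD8 Env; potency is for inhibitors of fusion seen as a drop in luminescence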
[22] = biological target: T5, COUP transcription factor 2 (Homo sapiens, UniProt P24468); experiment: Luminescence-based cell-based high throughput dose response assay to identify inhibitors of COUP-TFII (NR2F2).; assay type: functional;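 note: HEK293 cells transiently cotransfected with COUP-TFII expression vector and reporter; luciferase reporter luminescence driven by COUP-TFII from the pX2-168 reporter plasmid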
T5 sequence (P24468 whole entry): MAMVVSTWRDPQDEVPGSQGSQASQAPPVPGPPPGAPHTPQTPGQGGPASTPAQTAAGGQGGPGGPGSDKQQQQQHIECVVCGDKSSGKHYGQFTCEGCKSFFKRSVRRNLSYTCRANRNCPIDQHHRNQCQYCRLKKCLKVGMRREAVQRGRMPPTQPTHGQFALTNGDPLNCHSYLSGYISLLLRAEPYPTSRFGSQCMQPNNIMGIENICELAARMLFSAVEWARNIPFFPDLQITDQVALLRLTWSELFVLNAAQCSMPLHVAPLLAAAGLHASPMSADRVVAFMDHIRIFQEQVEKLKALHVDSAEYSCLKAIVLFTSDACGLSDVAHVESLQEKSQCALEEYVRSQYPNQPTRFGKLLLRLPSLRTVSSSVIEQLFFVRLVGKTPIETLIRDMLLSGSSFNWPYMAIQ

[23] = biological target: G-protein coupled receptor 35 (Homo sapiens, UniProt Q9HC97); experiment: GPR35 antagonists blocking zaprinast-driven arrestin recruitment, primary screen, imaging, U2OS, beta-arrestin-GFP, zaprinast agonist (AID 2058); assay type: functional;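 note: antagonist potency meaning inhibition of agonist-induced arrestin redistribution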
[24] = cytotoxicity in HPDE-C7 cells, cell-based, fluorescence, HTS (AID 430); assay type: functional; conditions: Homo sapiens
[25] = microbe, parasite or virus in culture; assay type: functional; conditions: Mycobacterium tuberculosis
[26] = cytotoxicity in KRAS-transformed pancreatic duct cells, primary screen, cell-based, fluorescence, HTS (AID 431); assay type: functional; conditions: Homo sapiens;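 note: cell line used: HPDE-C7K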
[27] = biological target: T6, Heat shock factor protein 1 (Mus musculus, UniProt P38532); experiment: HSF1 potentiators in luciferase reporter cells, confirmation, cell-based, NIH3T3, luminescence, dose retest (AID 435004); assay type: functional;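 note: stress induced by proteasome inhibitor MG132 added 30 min after compound; luciferase reporter driven by HSF1 response element in NIH3T3 cells; actives raise luminescence as potentiators of the MG132 stress response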
T6 sequence (P38532 whole entry): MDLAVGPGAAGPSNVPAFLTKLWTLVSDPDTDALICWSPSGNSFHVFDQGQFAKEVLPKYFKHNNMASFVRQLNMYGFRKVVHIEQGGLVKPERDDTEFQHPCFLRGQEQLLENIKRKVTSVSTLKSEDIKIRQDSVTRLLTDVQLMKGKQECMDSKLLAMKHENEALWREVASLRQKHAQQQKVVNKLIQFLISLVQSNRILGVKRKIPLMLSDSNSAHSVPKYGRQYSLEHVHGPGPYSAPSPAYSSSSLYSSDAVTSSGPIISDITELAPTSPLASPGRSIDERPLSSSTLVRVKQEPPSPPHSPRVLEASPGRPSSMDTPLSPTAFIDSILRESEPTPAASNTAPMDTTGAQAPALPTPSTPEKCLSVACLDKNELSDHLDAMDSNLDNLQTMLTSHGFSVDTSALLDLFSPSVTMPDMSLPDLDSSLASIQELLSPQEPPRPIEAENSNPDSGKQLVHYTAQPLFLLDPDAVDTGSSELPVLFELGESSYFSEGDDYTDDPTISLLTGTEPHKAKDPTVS

[28] = biological target: Eukaryotic translation initiation factor 4H (Homo sapiens, UniProt Q15056); experiment: human eIF4H binding inhibitors, primary screen, translation initiation inhibitor project, biochemical, uHTS, fluorescence polarization (AID 2012)
[29] = biological target: Polyadenylate-binding protein 1 (Homo sapiens, UniProt P11940); experiment: PABP poly(A) RNA binding inhibitors, primary screen, biochemical, fluorescence polarization, uHTS (AID 2014)
[30] = biological target: Cyclin-dependent kinase 5/CDK5 activator 1 (Homo sapiens, UniProt Q00535); experiment: CDK5/p35 kinase inhibitors, dose response, biochemical, cherry-picked samples, set 2 (AID 504545)
[31] = biological target: Dual specificity tyrosine-phosphorylation-regulated kinase 1A (Rattus norvegicus, UniProt Q63470); assay type: biochemical, Homo sapiens
[32] = Luminescence-based cell-based high throughput dose response assay to identify activators of the DAF-12 from the parasite S. stercoralis (ssDAF-12).; assay type: functional
[33] = biological target: T7, Oxysterols receptor LXR-beta (Homo sapiens, UniProt P55055); experiment: LXR agonists, Gal4 luciferase reporter, dose response, counter-screen for ssDAF-12 agonist project, cell-based, luminescence, HEK293, S. stercoralis campaign (AID 720737); assay type: functional; conditions: read-out: IC50 (the source's name)
T7 sequence (P55055 whole entry): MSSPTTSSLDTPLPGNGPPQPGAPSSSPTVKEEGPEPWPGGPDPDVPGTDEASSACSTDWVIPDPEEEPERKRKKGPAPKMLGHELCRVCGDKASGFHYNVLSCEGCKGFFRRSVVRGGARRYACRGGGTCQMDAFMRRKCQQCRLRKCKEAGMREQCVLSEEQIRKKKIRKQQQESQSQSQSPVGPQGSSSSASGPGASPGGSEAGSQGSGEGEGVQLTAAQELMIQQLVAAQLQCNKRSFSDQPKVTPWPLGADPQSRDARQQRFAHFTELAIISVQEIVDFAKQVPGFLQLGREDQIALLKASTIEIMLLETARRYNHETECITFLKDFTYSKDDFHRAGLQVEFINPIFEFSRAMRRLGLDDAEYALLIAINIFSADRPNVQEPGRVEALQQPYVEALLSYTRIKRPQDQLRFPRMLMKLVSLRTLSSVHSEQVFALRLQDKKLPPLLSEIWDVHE

[34] = cytotoxicity in HEK-293T cells, dose response, cytotoxicity control for BCR NF-kB inhibitor project, luminescence, B-cell screen hits (AID 489021); assay type: functional, cell-based;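 note: HEK-293T cells carrying an NF-kB luciferase reporter; cells exposed to compound for about 14 hours before viability readout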

Sequence of Cyclin-dependent kinase 5/CDK5 activator 1 (Q00535 whole entry): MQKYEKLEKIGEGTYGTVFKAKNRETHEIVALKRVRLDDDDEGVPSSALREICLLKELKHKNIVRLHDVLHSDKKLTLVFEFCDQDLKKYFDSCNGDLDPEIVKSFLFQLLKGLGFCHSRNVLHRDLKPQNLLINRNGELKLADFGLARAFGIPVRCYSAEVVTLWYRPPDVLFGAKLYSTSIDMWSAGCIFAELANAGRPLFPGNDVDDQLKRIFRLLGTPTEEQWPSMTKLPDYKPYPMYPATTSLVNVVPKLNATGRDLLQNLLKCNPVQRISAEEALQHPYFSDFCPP
Sequence of Cyclin-dependent kinase 5/CDK5 activator 1 (Q15078 whole entry, further chain): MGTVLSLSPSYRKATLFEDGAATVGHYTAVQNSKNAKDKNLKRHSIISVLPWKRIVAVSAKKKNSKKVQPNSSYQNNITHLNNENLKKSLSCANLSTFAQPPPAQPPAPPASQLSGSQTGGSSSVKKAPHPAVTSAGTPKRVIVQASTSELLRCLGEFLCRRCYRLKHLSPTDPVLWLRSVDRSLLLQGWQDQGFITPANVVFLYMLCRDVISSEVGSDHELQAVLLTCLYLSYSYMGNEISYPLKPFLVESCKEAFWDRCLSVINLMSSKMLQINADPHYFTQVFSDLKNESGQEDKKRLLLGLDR
Sequence of Glyceraldehyde-3-phosphate dehydrogenase (P04406 whole entry): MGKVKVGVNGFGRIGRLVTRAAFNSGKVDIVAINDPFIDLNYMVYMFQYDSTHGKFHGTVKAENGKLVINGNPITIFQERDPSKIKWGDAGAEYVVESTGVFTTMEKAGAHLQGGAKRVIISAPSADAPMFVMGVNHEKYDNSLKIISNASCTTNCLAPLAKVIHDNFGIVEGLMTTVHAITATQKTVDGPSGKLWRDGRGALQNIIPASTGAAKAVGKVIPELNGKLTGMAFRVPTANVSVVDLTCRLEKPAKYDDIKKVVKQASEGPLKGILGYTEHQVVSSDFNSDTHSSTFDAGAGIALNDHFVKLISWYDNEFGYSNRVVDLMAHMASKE
T1 sequence (P41143 whole entry): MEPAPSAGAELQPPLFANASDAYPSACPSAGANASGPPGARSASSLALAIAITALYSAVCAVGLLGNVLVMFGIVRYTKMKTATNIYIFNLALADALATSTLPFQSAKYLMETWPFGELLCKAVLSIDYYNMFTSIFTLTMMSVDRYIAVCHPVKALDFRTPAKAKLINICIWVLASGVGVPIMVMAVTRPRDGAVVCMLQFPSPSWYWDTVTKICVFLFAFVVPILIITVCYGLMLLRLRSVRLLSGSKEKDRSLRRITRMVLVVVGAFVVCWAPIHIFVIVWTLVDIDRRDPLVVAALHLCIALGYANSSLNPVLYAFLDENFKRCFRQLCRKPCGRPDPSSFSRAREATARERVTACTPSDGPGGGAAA
T2 sequence (P41145 whole entry): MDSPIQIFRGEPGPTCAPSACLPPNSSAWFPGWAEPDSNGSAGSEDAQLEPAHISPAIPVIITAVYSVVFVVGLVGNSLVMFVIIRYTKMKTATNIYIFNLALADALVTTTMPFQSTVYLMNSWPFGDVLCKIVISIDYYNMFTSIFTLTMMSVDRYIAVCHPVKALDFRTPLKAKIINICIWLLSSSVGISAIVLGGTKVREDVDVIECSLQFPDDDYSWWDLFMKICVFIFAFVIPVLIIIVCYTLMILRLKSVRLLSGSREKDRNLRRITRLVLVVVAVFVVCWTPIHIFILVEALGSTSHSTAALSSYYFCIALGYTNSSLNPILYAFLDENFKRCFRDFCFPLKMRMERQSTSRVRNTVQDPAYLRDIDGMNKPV
Sequence of Sphingosine 1-phosphate receptor 2 (O95136 whole entry): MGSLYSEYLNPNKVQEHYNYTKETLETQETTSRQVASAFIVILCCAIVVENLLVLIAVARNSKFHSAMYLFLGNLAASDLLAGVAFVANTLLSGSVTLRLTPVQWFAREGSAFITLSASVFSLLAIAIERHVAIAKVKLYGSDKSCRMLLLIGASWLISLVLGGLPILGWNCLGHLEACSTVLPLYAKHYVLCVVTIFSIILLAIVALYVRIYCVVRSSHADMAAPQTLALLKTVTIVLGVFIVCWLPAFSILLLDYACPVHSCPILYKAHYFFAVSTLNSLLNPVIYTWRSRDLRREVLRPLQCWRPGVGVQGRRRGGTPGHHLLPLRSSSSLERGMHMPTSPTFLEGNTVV
Sequence of Polyadenylate-binding protein 1 (P11940 whole entry): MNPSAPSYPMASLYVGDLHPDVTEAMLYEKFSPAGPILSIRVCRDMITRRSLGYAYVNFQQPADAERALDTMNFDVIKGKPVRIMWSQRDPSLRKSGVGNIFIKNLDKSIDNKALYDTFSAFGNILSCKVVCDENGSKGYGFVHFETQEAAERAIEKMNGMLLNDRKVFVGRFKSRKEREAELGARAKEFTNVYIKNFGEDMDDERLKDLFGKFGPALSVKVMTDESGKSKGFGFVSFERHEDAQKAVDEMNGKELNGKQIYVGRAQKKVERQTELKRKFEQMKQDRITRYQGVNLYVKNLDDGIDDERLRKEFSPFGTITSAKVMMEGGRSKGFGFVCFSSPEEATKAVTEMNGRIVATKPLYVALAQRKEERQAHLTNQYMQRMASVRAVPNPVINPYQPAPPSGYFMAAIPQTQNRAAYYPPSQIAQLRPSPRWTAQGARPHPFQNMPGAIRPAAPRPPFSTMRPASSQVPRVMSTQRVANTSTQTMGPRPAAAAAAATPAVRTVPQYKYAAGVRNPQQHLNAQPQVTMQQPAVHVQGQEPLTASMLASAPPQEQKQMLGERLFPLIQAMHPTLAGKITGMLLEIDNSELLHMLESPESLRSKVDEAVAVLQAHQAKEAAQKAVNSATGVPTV
Sequence of Photoreceptor-specific nuclear receptor (Q9Y5X4 whole entry): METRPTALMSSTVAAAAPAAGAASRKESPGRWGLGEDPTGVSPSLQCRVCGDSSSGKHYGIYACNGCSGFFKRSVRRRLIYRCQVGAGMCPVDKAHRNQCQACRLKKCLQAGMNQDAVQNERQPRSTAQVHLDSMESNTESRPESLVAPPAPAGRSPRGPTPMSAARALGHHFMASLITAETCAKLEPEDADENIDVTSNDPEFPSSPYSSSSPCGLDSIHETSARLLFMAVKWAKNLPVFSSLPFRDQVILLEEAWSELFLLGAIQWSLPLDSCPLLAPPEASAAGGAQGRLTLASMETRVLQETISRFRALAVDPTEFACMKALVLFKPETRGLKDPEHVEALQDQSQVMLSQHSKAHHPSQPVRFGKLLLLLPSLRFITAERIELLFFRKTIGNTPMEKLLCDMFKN
Sequence of G-protein coupled receptor 35 (Q9HC97 whole entry): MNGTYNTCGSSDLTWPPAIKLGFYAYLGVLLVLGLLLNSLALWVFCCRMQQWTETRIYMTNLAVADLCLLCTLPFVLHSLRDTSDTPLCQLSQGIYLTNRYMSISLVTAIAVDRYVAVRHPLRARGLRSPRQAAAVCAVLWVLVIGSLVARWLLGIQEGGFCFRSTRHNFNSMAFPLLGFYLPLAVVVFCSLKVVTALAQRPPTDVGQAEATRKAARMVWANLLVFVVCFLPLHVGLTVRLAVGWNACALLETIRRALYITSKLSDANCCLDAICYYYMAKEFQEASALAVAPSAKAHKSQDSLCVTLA
Sequence of Mu-type opioid receptor (P35372 whole entry): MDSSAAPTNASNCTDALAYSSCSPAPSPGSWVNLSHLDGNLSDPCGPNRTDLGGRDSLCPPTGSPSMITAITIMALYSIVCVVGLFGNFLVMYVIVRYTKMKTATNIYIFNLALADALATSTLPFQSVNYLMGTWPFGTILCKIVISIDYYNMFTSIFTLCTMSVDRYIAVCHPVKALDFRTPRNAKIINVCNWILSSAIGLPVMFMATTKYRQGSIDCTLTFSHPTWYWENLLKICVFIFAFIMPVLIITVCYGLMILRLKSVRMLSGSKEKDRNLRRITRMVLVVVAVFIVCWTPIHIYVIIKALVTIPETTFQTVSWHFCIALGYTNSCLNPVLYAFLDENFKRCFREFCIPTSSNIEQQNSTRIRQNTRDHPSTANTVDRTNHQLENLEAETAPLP
Sequence of Serine/threonine-protein phosphatase (Q9BPW0 whole entry): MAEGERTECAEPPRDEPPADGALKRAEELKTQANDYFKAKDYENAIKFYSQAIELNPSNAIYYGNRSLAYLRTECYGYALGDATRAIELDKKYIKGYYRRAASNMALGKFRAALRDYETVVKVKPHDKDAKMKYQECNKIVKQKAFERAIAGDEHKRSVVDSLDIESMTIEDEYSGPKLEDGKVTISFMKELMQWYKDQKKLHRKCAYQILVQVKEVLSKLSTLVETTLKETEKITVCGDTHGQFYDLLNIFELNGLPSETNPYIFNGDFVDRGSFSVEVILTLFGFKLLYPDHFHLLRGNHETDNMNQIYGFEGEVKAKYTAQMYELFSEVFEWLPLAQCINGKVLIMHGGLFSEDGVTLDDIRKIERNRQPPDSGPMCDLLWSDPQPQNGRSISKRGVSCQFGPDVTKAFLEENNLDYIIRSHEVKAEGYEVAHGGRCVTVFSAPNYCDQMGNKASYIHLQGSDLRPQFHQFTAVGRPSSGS
Sequence of Serine/threonine-protein phosphatase PP1-alpha catalytic subunit (P62136 whole entry): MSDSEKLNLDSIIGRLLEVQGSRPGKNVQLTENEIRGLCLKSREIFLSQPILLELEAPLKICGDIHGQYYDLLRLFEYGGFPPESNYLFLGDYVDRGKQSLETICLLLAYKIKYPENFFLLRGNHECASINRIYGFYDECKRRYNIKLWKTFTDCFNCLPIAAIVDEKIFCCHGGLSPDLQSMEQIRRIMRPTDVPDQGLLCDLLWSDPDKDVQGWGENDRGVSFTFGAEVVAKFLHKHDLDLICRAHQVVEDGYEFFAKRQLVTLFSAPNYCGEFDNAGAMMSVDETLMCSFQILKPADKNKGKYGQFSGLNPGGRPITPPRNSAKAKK

N#Cc1ccc(Cl)cc1NC(=O)COC(=O)c1ccc2c(c1)OCCO2
IC50 [1]: > 39.8 µM (not active)
IC50 [2]: 2.78 µM (active)

COc1cc2c(c(OC)c1OC)-c1c(cc3c(c1OC)OCO3)C1OC2[C@@H](C)[C@H]1C (stereo partly specified)
IC50 [3]: > 32 µM (inactive)
EC50 (Mu-type opioid receptor): > 32 µM (inactive)
EC50 [4]: > 32 µM (inactive)
IC50 [5]: 10 µM (active)
EC50 (Beta-galactosidase): > 31.5 µM (inactive)
IC50 [6]: 9.42 µM

CCN1CCN(C2=C(Cl)C(=O)N(c3ccc(C)cc3)C2=O)CC1
IC50 [7]: > 50 µM (inconclusive)

O=C(O)CSc1ccc2cc(O)ccc2c1
IC50 [7]: > 100 µM (not active)

O=C(NCCN1CCCCCC1)C1CCC(CNS(=O)(=O)c2cccc3cccnc23)CC1 (stereo unspecified)
IC50 (Bcl-2-like protein 10): > 100 µM (inactive)

CCOC(=O)c1cnc(-n2nc(C)cc2C)nc1NC1CCCCC1
IC50 [8]: 4.39 µM (active)
EC50 [9]: 1.82 µM (active)
IC50 [10]: 6.65 µM (active)
EC50 [11]: 1.2 µM (active)
IC50 [12]: > 67 µM (not active)
EC50 [13]: 12.8 µM (active)
EC50 (Streptococcus): 2.5 µM (active)
CC50 (Vero): 11.5 µM (active)
AC50 [14]: 3.01 µM (active)
AC50 [15]: 4.48 µM (active)
AC50 [16]: 3.29 µM (active)
AC50 [17]: 35.5 µM (active)
IC50 (Galanin receptor type 3): > 29.9 µM (inactive)
EC50 (cells): 14.5 µM (inactive)
AC50 [18]: 18.1 µM (active)
AC50 [19]: 21.3 µM (active)
AC50 [20]: 27.1 µM (active)
AC50 [21]: 33.4 µM (active)
IC50 [22]: 7.02 µM (active)

CCN(CC)c1ccc2c(Cl)c(Br)c(=O)oc2c1
IC50 [23]: < 0.5 µM (active)
IC50 [8]: 2.53 µM (active)
EC50 [24]: 3.1 µM (active)
EC50 [11]: 2.96 µM (active)
CC50 [25]: > 40 µM (active)
EC50 [26]: 2.08 µM (active)
EC50 [13]: 4.88 µM (active)
EC50 [27]: 2.75 µM (inconclusive)

c1cc[n+](CCC[n+]2ccccc2)cc1
IC50 [28]: 96.5 µM (active)
IC50 [29]: 3.68 µM (active)

O=C(O)c1ccc(/C=N/Nc2ccc(C(F)(F)F)cn2)cc1
AC50 [30]: 5.54 µM (active)
AC50 [31]: 7.95 µM (active)
IC50 [32]: > 67.6 µM (inactive)
EC50 [33]: > 67.6 µM (inactive)

Nc1ccc(-c2cnc(N)c(C(=O)c3cccnc3)n2)cn1
AC50 [30]: 36.7 µM (active)

OCCC/N=C/c1c(-c2ccccc2)nn(-c2nc3ccccc3s2)c1O
IC50 [34]: > 80 µM (inactive)
